Source: patent publication US20230190954A1, “COMPOSITION AND METHODS FOR TREATMENT OF PRIMARY CILIARY DYSKINESIA” (TRANSLATE BIO, INC., priority 2020, published 2023)

Tests used:
[1] = test system: mouse lungs; assay: In vivo screen of cationic lipids: FFL mRNA-LNP pulmonary delivery, IVIS luciferase imaging; set-up: species or system male CD1 mice; settings: for selection based on performance in the in vivo screen: about 150 cationic lipids tested; for potency as determined by the average radiance detected in mouse lungs: FFL mRNA-LNP, single intratracheal administration, about 5 hours post-dose; for suitability/performance in liposomes administered through pulmonary delivery via nebulization: mouse, in vivo
Description: In this example, various cationic lipids were tested for in vivo efficacy when mRNA encapsulated in lipid nanoparticles (mRNA-LNP) were administered to mice by pulmonary delivery. The cationic lipids were tested for both potency, as determined by levels of protein production, and tolerability, as determined by side effects associated with clearance and metabolism.
About 150 cationic lipids were tested. (FIG. 9). Each cationic lipid was used in preparing lipid nanoparticles encapsulating mRNA encoding firefly luciferase protein (FFL mRNA) according to methods known in the art. For example, suitable methods for mRNA encapsulation include methods described in International Publication Nos. WO2016/004318 and WO 2018/089801, which is hereby incorporated by reference in its entirety. The tested lipid nanoparticles comprised a lipid component consisting of a cationic lipid, a non-cationic lipid (DOPE), a PEG-modified lipid (DMG-PEG2K), and optionally cholesterol.
Lipid nanoparticle formulations comprising FFL mRNA were administered to male CD1 mice by a single intratracheal administration via nebulization using a Microsprayer®. At approximately 5 hours post-dose, the animals were dosed with luciferin by intraperitoneal injection and all animals were imaged using an IVIS imaging system to measure luciferase production in the lung. […] Some cationic lipids remarkably had greater than 50-fold increase in pulmonary protein expression as compared to other cationic lipids.

[2] = test system: mouse lungs; assay: as above; set-up: species or system male CD1 mice; settings: pulmonary-delivered (e.g., nebulized) FFL mRNA in LNP with this cationic lipid, threshold lines in FIG. 9

Compound	selection based on performance in the in vivo screen [1]	potency as determined by the average radiance detected in mouse lungs [1]	suitability/performance in liposomes administered through pulmonary delivery via nebulization [1]	historical radiance/expression of pulmonary-delivered FFL mRNA-LNP [2]
CC(C)CCCC(C)C1CCC2C3CC=C4CC(SSCCNC(=N)N)CCC4(C)C3CCC12C (stereo not shown) [HGT4002]	selected for further investigation			
CCCCCCCCC(O)CN(CCCC(=O)OCCN1CC(C)N(CCOC(=O)CCCN(CC(O)CCCCCCCC)CC(O)CCCCCCCC)CC1C)CC(O)CCCCCCCC (stereo not shown) [HEP-E3-E10]	selected for further investigation	particularly high potency	performed particularly well	
CCCCCCCC(=O)OCCCCCCCCCOC(=O)CC(CC(=O)OCCCCCCCCCOC(=O)CCCCCCC)(OC(=O)CCN(C)C)C(=O)OCCCCCCCCCOC(=O)CCCCCCC [TL1-10D-DMA]	selected for further investigation			
CCCCC/C=C\C/C=C\CCCCCCCC(=O)OCC(COC(=O)CCCCCCC/C=C\C/C=C\CCCCC)(COC(=O)CCCCCCC/C=C\C/C=C\CCCCC)NCCS(=O)(=O)NCCN(C)C [GL-TES-SA-DME-E18-2, 2-((2-(N-(2-(dimethylamino)ethyl)sulfamoyl)ethyl)amino)-2-((((9Z,12Z)-octadeca-9,12-dienoyl)oxy)methyl)propane-1,3-diyl (9Z,9′Z,12Z,12′Z)-bis(octadeca-9,12-dienoate)]	selected for further investigation	particularly high potency	performed particularly well	
CCCCCCCCOC(=O)CC(CC(=O)OCCCCCCCC)(OC(=O)CCN(C)C)C(=O)OCCCCCCCC [TL1-01D-DMA, trioctyl 2-((3-(dimethylamino)propanoyl)oxy)propane-1,2,3-tricarboxylate]	selected for further investigation	particularly high potency	performed particularly well	
CCCCCCCCC(O)CN(CCCCC(=O)OCCN1CC(C)N(CCOC(=O)CCCCN(CC(O)CCCCCCCC)CC(O)CCCCCCCC)CC1C)CC(O)CCCCCCCC (stereo not shown) [HEP-E4-E10]	selected for further investigation	particularly high potency	performed particularly well	
CC(C)CCCC(C)[C@H]1CCC2C3CC=C4C[C@@H](OC(=O)CCc5c[nH]cn5)CC[C@]4(C)C3CC[C@@]21C (stereo partly shown) [ICE, imidazole cholesterol ester]				around 10^4 p/s/cm^2sr
CCCCCCCCCCCCCCOC(=O)CC(CC(=O)OCCCCCCCCCCCCCC)(OC(=O)CCN(C)C)C(=O)OCCCCCCCCCCCCCC [TL1-04D-DMA]	selected for further investigation	particularly high potency	performed particularly well	
CCCCCCCCCCCCC(O)CN(CCCC(=O)Oc1c(OC)cc(C(=O)OCCCN(C)C)cc1OC)CC(O)CCCCCCCCCCCC (stereo not shown) [SY-3-E14-DMAPr]	selected for further investigation			
CCCCC/C=C\C/C=C\CCCCCCCC(=O)OCC(COC(=O)CCCCCCC/C=C\C/C=C\CCCCC)(COC(=O)CCCCCCC/C=C\C/C=C\CCCCC)NCCS(=O)(=O)NCCCN(C)C [GL-TES-SA-DMP-E18-2]	selected for further investigation	particularly high potency	performed particularly well	
